Target: 4-aminobutyrate aminotransferase, mitochondrial (Sus scrofa, UniProt P80147)
Experiment: Competitive inhibition of pig GABA aminotransferase using alpha-ketoglutarate as substrate by SSADH-coupled assay

4-aminobutyrate aminotransferase, mitochondrial, sequence (P80147 whole entry): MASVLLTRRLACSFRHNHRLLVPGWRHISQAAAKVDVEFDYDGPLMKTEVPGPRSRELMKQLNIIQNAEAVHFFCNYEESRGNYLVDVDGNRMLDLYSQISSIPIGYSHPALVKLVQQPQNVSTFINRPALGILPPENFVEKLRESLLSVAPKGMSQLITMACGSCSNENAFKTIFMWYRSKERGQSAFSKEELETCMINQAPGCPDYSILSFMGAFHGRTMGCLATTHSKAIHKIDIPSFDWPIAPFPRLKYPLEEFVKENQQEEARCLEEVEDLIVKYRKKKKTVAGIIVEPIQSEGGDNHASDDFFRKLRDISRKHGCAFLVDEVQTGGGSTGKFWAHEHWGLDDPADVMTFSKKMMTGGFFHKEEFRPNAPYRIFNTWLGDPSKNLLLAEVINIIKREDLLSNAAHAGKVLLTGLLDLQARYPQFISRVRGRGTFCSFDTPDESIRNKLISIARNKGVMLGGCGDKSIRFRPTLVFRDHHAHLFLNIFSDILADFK

How did the Ki turn out when NCc1cscc1C(=O)O was run?
Its Ki is 2860 µM.

NCc1csc(C(=O)O)c1 was tested. Which Ki did it give?
The Ki was 1350 µM.

For NCc1coc(C(=O)O)c1, which Ki is on record?
Its Ki is 1640 µM.

For NCc1ccc(C(=O)O)s1, which Ki is on record?
The Ki was 2490 µM.

Which Ki does the source give for NCc1ccc(C(=O)O)[nH]1 here?
The Ki was 2140 µM.

How did the Ki turn out when NCc1cocc1C(=O)O was run?
The Ki was 2270 µM.

For NCc1ccc(C(=O)O)o1, which Ki is on record?
Its Ki is 1400 µM.

NCc1c[nH]c(C(=O)O)c1 was tested. Which Ki did it give?
The Ki was 1590 µM.

Source: ChEMBL document CHEMBL2146416 (Bioorg Med Chem, 2012)
